From patent publication US11714087B2, “Treatment of necroptosis” (priority 2018, dated 2023)

Columns and labels:
Format in all cases: in vivo, Sprague-Dawley rats
RIPK1 = target: T1, RIPK1 (Rattus norvegicus, UniProt D3ZYL0); assay: Rodent ACLF model (BDL+LPS rats): RIPK1 immunostaining of liver tissue; conditions: 3.3 mg/kg Nec-1 i.p. 3 hr before LPS, vs BDL+Vehicle+LPS, p=0.009
T1 construct: Representative images of liver tissue of sham, BDL, BDL+LPS and BDL+NEC-1+LPS stained for RIPK1; from tissue; host or cells: rat liver (BDL+LPS ACLF model)
T1 sequence (D3ZYL0 1-658): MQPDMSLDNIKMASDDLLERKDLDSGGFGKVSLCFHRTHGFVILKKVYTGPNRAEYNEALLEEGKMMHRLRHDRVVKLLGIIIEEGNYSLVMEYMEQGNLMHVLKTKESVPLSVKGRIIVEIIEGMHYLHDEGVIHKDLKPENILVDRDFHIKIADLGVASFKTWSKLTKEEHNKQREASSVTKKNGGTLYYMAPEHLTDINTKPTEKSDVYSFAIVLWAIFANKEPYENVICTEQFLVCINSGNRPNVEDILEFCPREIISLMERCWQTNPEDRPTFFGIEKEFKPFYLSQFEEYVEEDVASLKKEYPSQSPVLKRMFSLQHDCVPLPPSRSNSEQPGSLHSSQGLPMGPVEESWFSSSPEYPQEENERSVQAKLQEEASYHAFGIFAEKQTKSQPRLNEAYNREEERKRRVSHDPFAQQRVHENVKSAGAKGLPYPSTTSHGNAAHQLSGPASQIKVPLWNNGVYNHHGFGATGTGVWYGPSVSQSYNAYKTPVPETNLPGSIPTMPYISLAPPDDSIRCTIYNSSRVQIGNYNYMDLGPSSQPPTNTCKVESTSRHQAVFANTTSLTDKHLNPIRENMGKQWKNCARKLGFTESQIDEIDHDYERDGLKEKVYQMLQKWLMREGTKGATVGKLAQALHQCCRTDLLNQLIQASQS
Protocol: (§1) The animal model of ACLF utilised in this study was developed using a well-characterized rodent model of advanced fibrosis induced by bile duct ligation (BDL) with ACLF induced in this model by infusion of LPS. Bile duct ligation, housing, and care of the animals were performed as previously described. Four groups of adult male Sprague-Dawley rats were studied (n=4-8 in each group). The animals were studied 4 weeks after either sham-operation or BDL. The animals in each group were terminated 3-h after administration of LPS (Klebsiella pneumoniae) (0.3 mg/kg/hr, intravenously) or saline under terminal anaesthesia.
(§2) Necrostatin 1 (Nec-1, Calbiochem, Sigma Aldrich, UK) was prepared as follows. Nec-1 was redissolved in N-2 methyl-pyrrolidone (NMP) to make a 200 mg/ml stock solution which was then further diluted to an intermediate concentration of 40 mg/ml in NMP. […]
(§3) Terminal deoxynucleotidyl transferase biotin-dUTP nick end labeling (TUNEL) staining of deparaffinised and proteinase K-treated liver and kidney sections was performed using the In-Situ Cell Death Detection kit, POD (Roche, UK) as per manufacturer's protocol. […] Quantitative analysis of immunohistochemistry positive area was assessed by measuring optical density using FIJI Image J software.

Caspase 8 = assay: Liver Caspase 8 activity (Caspase-Glo) in rodent ACLF model; conditions: BDL+NEC-1+LPS group; IQR 313.5-414.3; p=0.020 compared to BDL
Protocol: as §1
(§4) 4. BDL animals administered LPS and Nec-1; This group of BDL rats received an i.p. injection of 3.3 mg/kg Nec-1 followed, by an i.p injection of LPS, 3 hr later.
(§5) Liver Caspase 3/7 and 8 activities were measured using Caspase-Glo assay kits (Promega). Briefly, cytosolic extracts from liver tissue were obtained by homogenisation in hypotonic extraction buffer [10 mM HEPES, 0.5% Triton X-100, 2 mM DTT, protease inhibitor cocktail (Sigma)] using a TissueLyser LT sytem (Qiagen, UK). […] After quantification using BCA™ Protein Assay Kit (Pierce, UK), protein concentrations of supernatant were adjusted to 1 mg/ml with extraction buffer and stored at −80° C. […] Luminescence was measured using a plate-reading luminometer (FLUOstar Omega, BMG Labtech, UK).

RIPK3 = assay: Rodent ACLF model (BDL+LPS rats): plasma RIPK3 by ELISA; conditions: BDL+NEC-1+LPS vs BDL+Vehicle+LPS
Protocol: as §1, §2
Blood was withdrawn from the carotid line and immediately placed in heparin or EDTA-containing tubes (until full exsanguination), centrifuged (3,500 rpm for 10 min at 4° C.) and the plasma was stored at −80° C. for later use in biochemistry and RIPK3 quantification [Rat RIPK3 (Receptor-interacting serine/threonineprotein kinase) ELISA kit, Cat. No. ER0446, Wuhan Fine Biological Technology Co., Ltd., China]. […]

Caspase 3/7 = assay: Liver Caspase 3/7 activity (Caspase-Glo) in rodent ACLF model; conditions: BDL+NEC-1+LPS group; IQR 1640-3890; p=0.626 compared to BDL
Protocol: as §1, §4, §5

[1] = Rodent ACLF model (BDL+LPS rats): plasma biochemistry, histone 3 and brain water
Protocol: as §1
Necrostatin 1 (Nec-1, Calbiochem, Sigma Aldrich, UK) was prepared as follows. Nec-1 was redissolved in N-2 methyl-pyrrolidone (NMP) to make a 200 mg/ml stock solution which was then further diluted to an intermediate concentration of 40 mg/ml in NMP. The 40 mg/ml solution was finally diluted to a working concentration of 1 mg/ml in a solution of 30% (2-hydroxypropyl) β-cyclodextrin (Sigma, Cat No H107)/0.5% Citric acid.
as §4
Animals were sacrificed 3 hours after LPS.
Blood was withdrawn from the carotid line and immediately placed in heparin or EDTA-containing tubes (until full exsanguination), centrifuged (3,500 rpm for 10 min at 4° C.) and the plasma was stored at −80° C. for later use in biochemistry and RIPK3 quantification [Rat RIPK3 (Receptor-interacting serine/threonineprotein kinase) ELISA kit, Cat. No. ER0446, Wuhan Fine Biological Technology Co., Ltd., China]. Organs were harvested and either fixed in formalin for histological assessment or snap frozen.

[2] = system: liver and kidney sections; assay: Rodent ACLF model (BDL+LPS rats): TUNEL staining of liver and kidney sections (cell death)
Protocol: as §1, §2, §3

Compound: CN1C(=O)C(Cc2c[nH]c3ccccc23)NC1=S (stereo not drawn) [NEC-1, Necrostatin 1]
- expression of RIPK1 in liver (immunostaining optical density) (RIPK1): significantly decreased
- Caspase 8 activity in liver homogenates, median (Caspase 8): 326.5 RLU
- plasma RIPK3 levels (RIPK3): reduced markedly
- Caspase 3/7 activity in liver homogenates, median (Caspase 3/7): 2857 RLU
- plasma urea levels ([1]; BDL+NEC-1+LPS vs BDL+Vehicle+LPS, p=0.012): significant reduction
- plasma albumin levels ([1]; BDL+NEC-1+LPS vs BDL+Vehicle+LPS, p=0.017): significantly higher
- plasma creatinine ([1]; BDL+NEC-1+LPS vs BDL+Vehicle+LPS, p=0.020): significant reduction
- plasma AST ([1]; BDL+NEC-1+LPS vs BDL+Vehicle+LPS, p=0.037): significantly lower
- brain water content ([1]; BDL+NEC-1+LPS vs BDL+Vehicle+LPS, p=0.100): reduction in brain water content, although not statistically significant
- circulating levels of histone 3 ([1]; NEC-1 treated group vs BDL+Vehicle+LPS, p=0.048): significant reduction in circulating levels of histone 3
- total cell death in the livers (TUNEL staining) ([2]; BDL+NEC-1+LPS vs BDL+Vehicle+LPS, p=0.001): significant reduction in total cell death
- cell death in kidneys (TUNEL staining) ([2]; BDL+NEC-1+LPS vs BDL+vehicle+LPS, p=0.002): significant reduction in cell death
